In data set [1] the test system is L929 mouse fibroblast cell culture. Nature of the data set: Cytotoxicity: Agar Diffusion ISO 10993-5. As to conditions: L929 mouse fibroblast monolayer. The class given is cell-based. The source says: (§1) Standard in vitro toxicology studies, including EN/ISO tests for cytotoxicity and hemocompatibility, have been completed. The tests below were completed at a FDA certified toxicology testing company (Toxikon Corp, Bedford, Mass.) using established standards of measure on a CardioMatrix material (Tables 3 and 4). The CardioMatrix solution tested in this example comprised various concentrations of CardioMatrix powder in substantially sucrose free aqueous solution.
The Agar Diffusion test (ISO 10993-5) measures a material's effect on cell cultures, which are extremely sensitive to minute quantities of leachable chemicals and readily display characteristic signs of toxicity in the presence of potentially harmful leachables. The biological reactivity of a mammalian monolayer, L929 mouse fibroblast cell culture, in response to the test article was determined as “no-reactivity” in tests.
(In general: Agar diffusion results depend on both activity and mobility in agar.)

Data set [2] has as its system paravertebral muscle of New Zealand white rabbits. The conditions noted are these: in vivo. The source says: This test assesses the local effects of material on contact with living tissue. Test article was implanted into paravertebral muscle of 3 New Zealand white rabbits, with negative control (GelFoam) implanted in the contralateral muscle of each animal. Healing was allowed for 2 weeks. Animals were sacrificed and implants excised. Excised implants were examined macroscopically with a magnifying lens and fixed in formalin. Histologic slides of hematoxylin and eosin (H&E) and Mason's Trichrome stained sections were prepared, studied microscopically by a board-certified veterinary pathologist, and evaluated on a scale of 0-3. CardioMatrix implants retained the initial implant volume, collagen fibers, and vascularization of the injection site.

In data set [3] the test system is rabbits. Nature of the data set: Rabbit Pyrogenicity (ISO-10993-11). The class given is in vivo. As to conditions: intravenous injection of extract at 10 mL/kg. The method, then:
The purpose of the test was to detect the risk of a patient to a febrile reaction as a result of the administration of the test article extract. The test article was prepared by mixing 9 ml of the test article with 9 mL of 0.9% USP Sodium Chloride for Injection (NaCl) and the resulting gel extracted at a ration of 0.2 gm per 1.0 mL. The test article extract was administered by intravenous injection at 10 mL/kg. The rectal temperatures of the injected rabbits were compared with the temperature of a control rabbit similarly injected with 0.9% USP Sodium Chloride for Injection (NaCl). The base-line temperatures of the rabbits, determined no more than 30 minutes prior to injection of the test article extract, were used to exclude rabbits whose body temperatures vary by more than 1° C. from each other and whose temperatures are greater than 39.8° C. Body temperatures were recorded at 30 minute intervals between 1 and 3 hours subsequent to injection.

On the set-up of data set [4]: species or system Sprague Dawley rats. The conditions noted are these: rat, in vivo. The source says: To measure the local and whole animal distribution a 14C, carbon radiolabeled version of a Cardiomatrix was generated. The radiolabeled version was internally labeled at the third alanine site (Acetyl-(RADA)-(R-[^14C(U)-Ala]-D-A)-(RADA)2-CONH2) as opposed to a labeled acetyl group which could be cleaved off, in order to better characterize the adsorption, degradation, metabolism and excretion (ADME) of the CardioMatrix material in vivo. The radiolabeled material was then implanted into Sprague Dawley rats in a femur defect model. Urine and stool samples were collected and the radioactivity was counted.

Data set [5] relates to rabbits. As to conditions: rabbit, in vivo.
Description: A 0.5% w/v peptide CardioMatrix solution was extracted in NaCl and CSO at a ratio of 0.2 gm per 1.0 mL at 70±2° C. for 24 hours. […] Three rabbits were injected intracutaneously, using one side of the animal for the test article extracts and the other side for the control extracts, at 0.2 mL per site. The injected sites were examined at 24, 48, and 72 hours post inoculation for gross evidence of tissue reaction such as erythema, edema, and necrosis. A Primary Irritation Index of 0.5 or less will be considered a negligible irritant, where 0.5 to <2 are slight irritants, 2 to <5 are moderate irritants, and >5 are severe irritants.
Data set [6] relates to rabbit blood (red blood cells). Nature of the data set: Hemolysis: Direct Contact (ISO 10993-4). The conditions noted are these: rabbit blood in direct contact, triplicate. The class given is cell-based.
Description: as §1
The hemolysis test (Direct Contact, ISO-10993-4) measures the ability of a material to cause red blood cells to rupture. This test is derived from well-established NIH protocols and is performed in triplicate. This test uses rabbit blood in direct contact with the test material and the degree of hemolysis is measured spectrophotometrically.

Data set [7] has as its system prothrombin coagulation time of human plasma. Nature of the data set: Prothrombin Time Assay, Human Plasma (ISO 10993-4).
Description: as §1
Prothrombin Time (Human Plasma, ISO 10993-4) measures the effect of a test article extract on human blood coagulation time. This assay has become a suitable clinical means of determining the presence and functioning ability of prothrombin in the process of coagulation.

“Also recorded” adds a separate entry of the source. Some results are limits rather than exact numbers.

Regarding `CC(=O)N[C@@H](CCCNC(=N)N)C(=O)N[C@@H](C)C(=O)N[C@@H](CC(=O)O)C(=O)N[C@@H](C)C(=O)N[C@@H](CCCNC(=N)N)C(=O)N[C@@H](C)C(=O)N[C@@H](CC(=O)O)C(=O)N[C@@H](C)C(=O)N[C@@H](CCCNC(=N)N)C(=O)N[C@@H](C)C(=O)N[C@@H](CC(=O)O)C(=O)N[C@@H](C)C(=O)N[C@@H](CCCNC(=N)N)C(=O)N[C@@H](C)C(=O)N[C@@H](CC(=O)O)C(=O)N[C@@H](C)C(N)=O` [CardioMatrix, RADARADARADARADA], the “Cytotoxicity: Agar Diffusion, biological reactivity” value in data set [1] was “no-reactivity; also recorded: Non-cytotoxic”. The “Rabbit Muscle Implant toxicity score” value in data set [2] is recorded as 0.13. The “Rabbit pyrogenicity, febrile reaction” value in the data set with rabbits [3] is given as “None of the animals injected with the test article extract exhibited signs of pyrogenic response; also recorded: No effect on animals; also recorded: No febrile reaction from any animal”. Besides, in data set [4], the “Time until degraded and excreted” value was no more than 28 days. Moreover, in the data set with rabbits [5], the “Irritant class by Primary Irritation Index” value is ““Negligible”” and the “Signs of erythema or edema at injected sites” value is given as “did not exhibit signs of erythema or edema”. Further, the “Hemolysis: Direct Contact” value in data set [6] is reported as “Non-hemolytic”. Moreover, the “Initiation of coagulation cascades (hemocompatibility tests)” value in data set [7] (direct contact with blood and plasma) was “do not initiate coagulation cascades”. For the same molecule, in data set [7] (test article extract, human plasma), the “Effect on prothrombin coagulation time” value was “did not have an adverse effect”.
